The source of these data is paper PMC4947679, “Quantitative In Vitro and In Vivo Evaluation of Intestinal and Blood-Brain Barrier Transport Kinetics of the Plant N-Alkylamide Pellitorine” (BioMed Research International, 2016).

Where two headings read alike, the source gives them in different places.

The nature of data set [1]: Capillary depletion experiment in mice. The conditions noted are these: 10 min after intravenous injection; for Kp at 10 min: female, ICR-CD-1, mouse, 36 μg/mouse. The format is in vivo, ICR-CD-1 mice. The method, then:
A capillary depletion experiment was performed to distinguish the transport of pellitorine into the brain, represented by the parenchyma, and part of pellitorine which is trapped by the endothelial cells of the brain, represented by the capillaries. A method of Triguero et al. was used, which was modified by Gutierrez et al.. The mice were anesthetized intraperitoneally with 40% (w/V) urethane solution (3 g/kg). Thereafter, 20 μL of the 1.8 mg/mL pellitorine dose solution was injected into the jugular vein. Ten min after injection, blood was collected from the abdominal aorta and serum was obtained by centrifuging the blood at 10 000 ×g during 15 min at 21°C. Then, after removing the skin of the mice's chest, the aorta is clamped, the jugular veins are severed, and the brain is immediately perfused manually with 20 mL of Lactated Ringer's solution. The mice are decapitated, and the brains are isolated, weighed, and put into tubes (LoBind Eppendorf), to which 525 μL ice-cold capillary buffer (10 mM HEPES, 141 mM NaCl, 4 mM KCl, 2.8 mM CaCl2, 1 mM MgSO4, 1 mM NaH2PO4, and 10 mM D-glucose adjusted to pH 7.4) was added. The tubes (LoBind Eppendorf) were homogenized. Next, 1000 μL of 26% ice-cold dextran solution in capillary buffer was added and vortexed and the tubes were subsequently centrifuged at 20 000 ×g for 60 min at 4°C. Parenchyma and fat tissue (supernatant) were transferred into separate tubes (LoBind Eppendorf) and weighed. The capillaries (pellet) were kept in the original tube. The sample preparation of the pellet and the supernatant is the same sample preparation method as used for the mice brains and mice serum, respectively, as described in Section 2.6.
The distribution in the brains was calculated as follows: (5) Fraction%=Mtissue/Mcapillaries+Mparenchyma×100 in which M tissue is the amount of pellitorine in the capillaries and parenchyma, M capillaries the amount of pellitorine in the capillaries, and M parenchyma the amount of pellitorine in the parenchyma. The capillary depletion experiment was performed in duplicate and mean values are reported.

Details of data set [2]: method as in PMID 24055064. The conditions noted are these: cited from earlier work.

For `CCCCC/C=C/C=C/C(=O)NCC(C)C` [pellitorine, deca-2E,4E-dienoic acid isobutylamide], in data set [1] (mean of duplicate), the “fraction in brain capillaries” value is recorded as 3% and the “fraction in brain parenchyma” value stood at 97%. Besides, the Kp at 10 min in data set [1] (brain capillaries (relative to serum), read-out: brain capillaries, brain/serum ratio) was found to be 0.01. In addition, the Kp at 10 min in data set [1] (brain parenchyma (relative to serum), read-out: brain parenchyma, brain/serum ratio) came to 0.347. Besides, the “log P” value in data set [2] was 3.65.

As usually defined, the log P is the decadic logarithm of the partition coefficient of the neutral form, usually between octanol and water.
